Test results as given in PMC12881674, “Activation of TRPV3 channels in bladder cancer cells stimulates ATP release” (Molecular Pharmacology, 2025).

Target: T1, human TRPM8 (Homo sapiens, UniProt Q7Z2W7)
T1 construct: expressed in transfected cells; host or cells: HEK293
Assay: fluo-4 Ca2+ assay selectivity, HEK cells expressing human TRPM8
Format: cell-based
Conditions: concentrations up to 50 μM
Source text: KU-19-19 (DSMZ no. ACC 395), CAL-29 (DSMZ no. ACC 515), 647-V (DSMZ no. ACC 414), RT-4 (DSMZ no. ACC 412), and RT-112 (DSMZ no. ACC 418) bladder cancer cell lines were obtained from the Leibniz Institute DSMZ (German Collection of Microorganisms and Cell Cultures). Human TRPV3 (NM_145068, purchased from OriGene) and mouse TRPV3 (NM_001371006), rat TRPV1, mouse TRPV2, mouse TRPV4, human TRPM2, human TRPM8, and human TRPA1 were stably transfected in HEK293 cells as described before.[27] […]
All fluorometric Ca^2+ assays were performed in HBS buffer at room temperature. […] For the primary compound screening and the generation of concentration-response analyses, a robotic liquid handling station (Freedom Evo 150; Tecan) with a built-in custom-made fluorescence plate imager was used. […] Fluorescence was excited using a 470-nm light-emitting diode, and emitted light was imaged through a 515-nm–long pass filter with a cooled Zyla 5.5 camera (Andor). Fluorescence was recorded and processed under the control of the μ-Manager 2.0 gamma software (https://micro-manager.org.[28]). After recording baseline fluorescence, compounds were dispensed into the wells via the liquid handling device. […] For further analysis, fluorescence signals were calculated for each well, corrected for background intensities and normalized to the initial signals. […]

T1 sequence (Q7Z2W7 whole entry): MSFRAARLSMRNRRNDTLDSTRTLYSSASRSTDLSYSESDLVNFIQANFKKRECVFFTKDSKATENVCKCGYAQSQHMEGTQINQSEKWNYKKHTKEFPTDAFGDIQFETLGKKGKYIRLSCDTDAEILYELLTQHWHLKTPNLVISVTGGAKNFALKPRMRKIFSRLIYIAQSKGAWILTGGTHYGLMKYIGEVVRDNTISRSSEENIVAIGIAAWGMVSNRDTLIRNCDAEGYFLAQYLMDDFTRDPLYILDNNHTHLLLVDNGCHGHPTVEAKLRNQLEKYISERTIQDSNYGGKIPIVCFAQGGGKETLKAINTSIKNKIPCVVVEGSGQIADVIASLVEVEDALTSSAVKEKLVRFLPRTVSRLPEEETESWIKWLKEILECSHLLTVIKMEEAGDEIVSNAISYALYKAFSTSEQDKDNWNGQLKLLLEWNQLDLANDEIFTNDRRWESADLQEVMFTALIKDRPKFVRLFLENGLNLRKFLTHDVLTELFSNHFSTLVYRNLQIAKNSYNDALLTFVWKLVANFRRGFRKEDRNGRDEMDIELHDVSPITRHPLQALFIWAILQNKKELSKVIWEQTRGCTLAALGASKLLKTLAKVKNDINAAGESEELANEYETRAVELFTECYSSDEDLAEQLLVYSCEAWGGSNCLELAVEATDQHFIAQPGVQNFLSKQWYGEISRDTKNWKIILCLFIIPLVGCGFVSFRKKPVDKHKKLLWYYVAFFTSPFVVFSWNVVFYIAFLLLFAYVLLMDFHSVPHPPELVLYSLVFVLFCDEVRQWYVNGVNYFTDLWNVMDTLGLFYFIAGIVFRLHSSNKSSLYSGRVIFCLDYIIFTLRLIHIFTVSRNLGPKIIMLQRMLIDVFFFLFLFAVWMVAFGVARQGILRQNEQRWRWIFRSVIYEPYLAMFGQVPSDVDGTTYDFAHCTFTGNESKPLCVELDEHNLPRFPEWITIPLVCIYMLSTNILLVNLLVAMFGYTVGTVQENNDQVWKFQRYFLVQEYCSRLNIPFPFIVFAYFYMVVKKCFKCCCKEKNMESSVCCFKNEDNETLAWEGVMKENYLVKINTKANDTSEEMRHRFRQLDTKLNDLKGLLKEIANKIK

SMILES: COC(=O)C12CN(Cc3ccccc3)CC1(C(=O)OC)CN(Cc1ccccc1)C2 (stereo not shown) [AV3-1]
- effect on TRPM8: no effect
